Measured values reported in patent publication US20240115705A1, “Regulation of Butyrophilin subfamily 3 member A1 (BTN3A1, CD277)” (The J. Gladstone Institutes, a testamentary trust …, priority 2021, published 2024).

Tested on: Daudi-Cas9 cells
Assay: Cancer-T cell co-culture genome-wide CRISPR knockout screen (Vγ9Vδ2 T cell killing)
Format: cell-based, human
Conditions: for score: MAGeCK sgRNA test, co-culture screen; for LFC: log-fold change of sgRNA, surviving cells after co-culture vs baseline; for LFC / treat mean: MAGeCK; for treat mean: sgRNA abundance in surviving Daudi-Cas9 KO cells after 24 hours Vγ9Vδ2 T cell co-culture with zoledronate; for high_in_treatment: sgRNA enriched (TRUE) or depleted (FALSE) after T cell co-culture

Substance | score | LFC | treat mean | high_in_treatment
SAE1_TGCTTCTTGTCGGCTTGAA: library sgRNA targeting SAE1 (listed as DNA, chemistry not fully specified) | 7.1879 | −7.4222 | 19.337 | FALSE
MRPL9_CTCCACGATGACCGTGCCC: library sgRNA targeting MRPL9 (as printed in the source, key not given here) | 6.5755 | −4.3743 | 152.42 | FALSE
RPP21_GCACTCACGTCTCTGGCGC: library sgRNA targeting RPP21 (as printed in the source, key not given here) | 6.2576 | −7.9412 | 9.6859 | FALSE
NUP37_GCCAGCACACACTCATGCC: library sgRNA targeting NUP37 (listed as DNA, chemistry not fully specified) | 5.9656 | −1.9711 | 1092.8 | FALSE
GTF2A2_AGCACTGGCTCAGAGGGTC: library sgRNA targeting GTF2A2 (listed as DNA, chemistry not fully specified) | 6.6409 | −6.616 | 29.574 | FALSE
SLC2A4_CAGGTCTGAAGCGCCTGAC: library sgRNA targeting SLC2A4 (listed as DNA, chemistry not fully specified) | 6.0044 | 4.6166 | 47.773 | TRUE
WDR61_ATTCCATCTATGGCTCCAC: library sgRNA targeting WDR61 (as printed in the source, key not given here) | 6.193 | −9.1046 | 2.9058 | FALSE
SPIB_GGGGGGTTCGTAGCAGAGC: library sgRNA targeting SPIB (as printed in the source, key not given here) | 6.2733 | 1.2452 | 3280.6 | TRUE
DNLZ_CAGCTCGTCTACACCTGCA: library sgRNA targeting DNLZ (as printed in the source, key not given here) | 6.2683 | −8.2244 | 6.7801 | FALSE
IFFO1_GGCCTGGGTCGTCGCGACC: library sgRNA targeting IFFO1 (as printed in the source, key not given here) | 5.9717 | 4.5353 | 68.011 | TRUE
ARL14EPL_TTAATAGCAACAAATAGAG: library sgRNA targeting ARL14EPL (listed as DNA, chemistry not fully specified) | 7.215 | 3.9422 | 227.01 | TRUE
BTN3A1_GTTGATGTGAAGGGTTACA: library sgRNA targeting BTN3A1 (listed as DNA, chemistry not fully specified) | 9.8596 | 1.9969 | 2842.7 | TRUE
PRMT1_TGGTGCTGGACGTCGGCTC: library sgRNA targeting PRMT1 (listed as DNA, chemistry not fully specified) | 6.7595 | −8.6196 | 6.7801 | FALSE
SUGT1_TTTGACTGATGAGTCCACT: library sgRNA targeting SUGT1 (listed as DNA, chemistry not fully specified) | 7.7611 | 1.5136 | 3294.2 | TRUE
ACAT2_CAGTCCAGTCAATAGGGAT: library sgRNA targeting ACAT2 (listed as DNA, chemistry not fully specified) | 12.759 | 2.0827 | 4335.4 | TRUE
SPIB_GCTAGCGAAGTTCTCCGTG: library sgRNA targeting SPIB (as printed in the source, key not given here) | 8.8597 | 1.4916 | 4447.4 | TRUE
BTN3A1_AGGGAACTTCTGATGGTAC: library sgRNA targeting BTN3A1 (listed as DNA, chemistry not fully specified) | 8.7326 | 1.7308 | 3095 | TRUE
FBXW7_AGGTTTCATACACAGTCCA: library sgRNA targeting FBXW7 (as printed in the source, key not given here) | 7.629 | 1.4859 | 3314.5 | TRUE
AARS2_ATCCGCCTACCCCGCTCCA: library sgRNA targeting AARS2 (listed as DNA, chemistry not fully specified) | 6.7194 | −4.9928 | 99.765 | FALSE
WDR59_TATCCGCACATCGCCGTCA: library sgRNA targeting WDR59 (as printed in the source, key not given here) | 7.8204 | −3.8469 | 327.58 | FALSE
IRF1_TGCCTGTTTGTTCCGGAGC: library sgRNA targeting IRF1 (as printed in the source, key not given here) | 11.386 | 1.4325 | 8072.2 | TRUE
FBXW7_TTCTTCCAACTGTCCTTGC: library sgRNA targeting FBXW7 (as printed in the source, key not given here) | 7.5154 | 1.1042 | 6114.5 | TRUE
GSS_ACCCCAGCTGTGCACCGGT: library sgRNA targeting GSS (listed as DNA, chemistry not fully specified) | 6.1722 | −4.0666 | 169.48 | FALSE
SH3GL1_ACTTCTGTCACCGCCTTGC: library sgRNA targeting SH3GL1 (listed as DNA, chemistry not fully specified) | 6.045 | −7.484 | 11.374 | FALSE
BLQC1S1_ACCAAAGCTTCTGTCAGGC: library sgRNA targeting BLQC-1S1 (listed as DNA, chemistry not fully specified) | 6.0173 | −1.8638 | 1264.6 | FALSE
SPIB_CTGGGGCTACTGACGCGCG: library sgRNA targeting SPIB (as printed in the source, key not given here) | 12.692 | 1.6241 | 7610.7 | TRUE
